Measurements from paper PMC3478282, “Probing the Putative Active Site of YjdL: An Unusual Proton-Coupled Oligopeptide Transporter from E. coli” (PLoS ONE, 2012).
Substitutions are numbered along the chain they refer to. Residues, ends and D or L forms follow the SMILES beside them.

Assays:
Assay type in all cases: cell-based, E. coli
[1] = biological target: T1, YjdL Tyr113Phe (Escherichia coli, UniProt P39276, Y113F); assay: β-Ala-Lys(AMCA) uptake and inhibition assay, YjdL Tyr113Phe; conditions: for IC50: 0.2 mM β-Ala-Lys(AMCA), 5 min incubation, pH 6.5, ±SEM, n≥3
T1 construct: expressed in transfected cells; host or cells: E. coli BL21(DE3)pLysS, pTTQ18-yjdL mutant (QuikChange)
T1 sequence (P39276 1-485 Y113F): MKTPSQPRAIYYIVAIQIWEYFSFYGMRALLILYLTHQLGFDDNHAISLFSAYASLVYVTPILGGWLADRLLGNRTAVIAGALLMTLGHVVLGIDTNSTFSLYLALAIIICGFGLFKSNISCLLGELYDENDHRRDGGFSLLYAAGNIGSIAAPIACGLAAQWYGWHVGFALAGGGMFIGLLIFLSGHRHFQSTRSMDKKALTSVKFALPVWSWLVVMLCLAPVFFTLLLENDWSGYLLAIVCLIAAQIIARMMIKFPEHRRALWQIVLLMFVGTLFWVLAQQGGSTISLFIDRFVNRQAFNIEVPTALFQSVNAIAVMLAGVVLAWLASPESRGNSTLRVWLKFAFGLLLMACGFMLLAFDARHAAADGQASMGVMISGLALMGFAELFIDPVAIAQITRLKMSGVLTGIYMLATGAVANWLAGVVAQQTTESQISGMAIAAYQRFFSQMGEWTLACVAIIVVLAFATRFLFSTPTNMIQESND
Experimental: (§1) Plasmids were transformed into E. coli BL21(DE3)pLysS cells by heat shock and transformants were selected on agar plates containing 100 µg/mL ampicillin and 34 µg/mL chloramphenicol. Single transformants were inoculated into 2 mL LB-media with antibiotics as above and grown overnight. The cultures were diluted 1∶50 in 5 mL LB-media with antibiotics as above, and at an OD600 of 0.5–0.8 protein expression was induced by the addition of 1 mM isopropyl β-D-1-thiogalactopyranoside (IPTG). The cells were harvested after three hours of induction by centrifugation and resuspended in uptake buffer (50 mM MES pH 6.5, 140 mM NaCl, 5.4 mM KCl, 1.8 mM CaCl2, 0.8 mM MgSO4, and 5 mM glucose).
(§2) Uptake assays were performed as previously described, [20]. In a final assay volume of 100 µL; 0.2 mM β-Ala-Lys-N-7-amino-4-methylcoumarin-3-acetic acid (β-Ala-Lys(AMCA), Biotrend) (10 µL) and various concentrations of ligands (purchased from Bachem or Sigma-Aldrich) or uptake buffer (50 µL) were incubated with bacterial cell suspension (OD600 = 10, 40 µL) at 37°C. After 5 min, the uptake was stopped by addition of 500 µL ice-cold uptake buffer followed by immediate centrifugation and washing twice in ice-cold uptake buffer. Finally the cell pellet was resuspended in 100 µL uptake buffer, and the uptake was quantified by fluorescence measurements (excitation at 340 nm and emission at 460 nm) on a Safire 2 fluorimeter. Non-specific uptake was measured as described above on IPTG-induced E. coli BL21(DE3)pLysS cells harboring the empty pTTQ18 vector. All uptake assay experiments were reproduced at least three times independently and data analyses were performed using GraphPad Prism ver. 5.

[2] = biological target: T2, YjdL Tyr25Phe (Escherichia coli, UniProt P39276, Y25F); assay: β-Ala-Lys(AMCA) uptake and inhibition assay, YjdL Tyr25Phe; conditions: for IC50: 0.2 mM β-Ala-Lys(AMCA), 5 min incubation, pH 6.5, ±SEM, n≥3
T2 construct: expressed in transfected cells; host or cells: E. coli BL21(DE3)pLysS, pTTQ18-yjdL mutant (QuikChange)
T2 sequence (P39276 1-485 Y25F): T1 sequence (P39276 1-485 Y113F) with Y25F, F113Y
Experimental: as §1, §2

[3] = biological target: T3, YjdL Ala281Phe (Escherichia coli, UniProt P39276, A281F); assay: β-Ala-Lys(AMCA) uptake and inhibition assay, YjdL Ala281Phe; conditions: for IC50: 0.2 mM β-Ala-Lys(AMCA), 5 min incubation, pH 6.5, ±SEM, n≥3
T3 construct: host or cells: E. coli BL21(DE3)pLysS
T3 sequence (P39276 1-485 A281F): T1 sequence (P39276 1-485 Y113F) with F113Y, A281F
Experimental: as §1, §2

[4] = biological target: T4, YdgR Tyr71Phe (Escherichia coli, UniProt P77304, Y71F); assay: β-Ala-Lys(AMCA) uptake and inhibition assay, YdgR Tyr71Phe
T4 construct: host or cells: E. coli BL21(DE3)pLysS
T4 sequence (P77304 whole entry Y71F): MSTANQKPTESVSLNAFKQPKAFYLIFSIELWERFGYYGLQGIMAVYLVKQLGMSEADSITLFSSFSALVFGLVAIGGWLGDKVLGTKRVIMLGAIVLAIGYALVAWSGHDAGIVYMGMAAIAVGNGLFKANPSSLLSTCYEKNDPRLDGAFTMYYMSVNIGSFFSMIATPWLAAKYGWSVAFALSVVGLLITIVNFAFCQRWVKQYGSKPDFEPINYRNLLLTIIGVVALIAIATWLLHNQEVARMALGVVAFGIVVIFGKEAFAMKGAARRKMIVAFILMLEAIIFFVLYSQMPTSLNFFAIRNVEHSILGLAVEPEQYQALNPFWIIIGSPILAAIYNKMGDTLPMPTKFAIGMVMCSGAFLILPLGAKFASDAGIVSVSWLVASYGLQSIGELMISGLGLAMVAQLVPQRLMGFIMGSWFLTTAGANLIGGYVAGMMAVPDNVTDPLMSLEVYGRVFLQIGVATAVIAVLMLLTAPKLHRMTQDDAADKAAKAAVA
Experimental: as §1
as §2, with “After 5 min, the uptake was stopped by addition of 500 µL ice-cold uptake buffer followed by immediate centrifugation and washing twice in ice-cold uptake buffer.” left out, “All uptake assay experiments were reproduced at least three times independently and data analyses were performed using GraphPad Prism ver. 5.” left out

[5] = biological target: T5, YjdL Trp278Phe (Escherichia coli, UniProt P39276, W278F); assay: β-Ala-Lys(AMCA) uptake and inhibition assay, YjdL Trp278Phe; conditions: 0.2 mM β-Ala-Lys(AMCA), 5 min incubation, pH 6.5; ±SEM, n≥3
T5 construct: host or cells: E. coli BL21(DE3)pLysS
T5 sequence (P39276 1-485 W278F): T1 sequence (P39276 1-485 Y113F) with F113Y, W278F
Experimental: as §1, §2

[6] = 0.2 mM, 5 min, pH 6.5 (Figure 3)

With “β-Ala-Lys-N-7-amino-4-methylcoumarin-3-acetic acid [β-Ala-Lys(AMCA)]” the “increase of β-Ala-Lys(AMCA) uptake, YjdL Tyr113Phe” value [1, 6] was ~2 fold, the “β-Ala-Lys(AMCA) uptake level, YjdL Tyr25Phe” value [2, 6] was 27% and the “increase of β-Ala-Lys(AMCA) uptake compared to WT-YjdL, Ala281Phe” value [3, 6] was ~3 fold. For the same molecule, the “β-Ala-Lys(AMCA) uptake level, YdgR Tyr71Phe” value ([4]; 0.2 mM, 5 min, pH 6.5 (Figure 4)) was 27%.

With `C[C@H](N)C(=O)N[C@@H](C)C(=O)O` [Ala-Ala] (H-Ala-Ala-OH) the IC50 [5] was 9900 ± 1000 µM, the IC50 [1] was 1900 ± 100 µM and the IC50 [2] was > 50000 µM. For the same molecule, the IC50 [3] was > 50000 µM and the IC50 ([4]; 0.2 mM β-Ala-Lys(AMCA), 5 min incubation, pH 6.5, ±SEM, n≥3) was 370 ± 30 µM.

`C[C@H](N)C(=O)N[C@@H](CCCCN)C(=O)O` [Ala-Lys] (H-Ala-Lys-OH) gave an IC50 [5] of 380 µM, an IC50 [1] of 340 ± 40 µM and an IC50 [2] of 400 ± 80 µM. It also gave an IC50 [3] of 260 ± 20 µM.

`C[C@H](NC(=O)[C@@H](N)Cc1ccc(O)cc1)C(=O)O` [Tyr-Ala] was tested, and the IC50 [5] was 2800 ± 400 µM, the IC50 [1] was 1300 ± 300 µM and the IC50 [2] was 33700 ± 3900 µM. The IC50 [3] was 33200 ± 3400 µM.
